Test results: a melting point compilation (Tetko et al.; mined from patent text by program, amines drawn as free bases though some values may be those of a salt)

Compared with `C[C@H](C(=O)c1ccccc1F)n1ccn(-c2ccc(OCC(F)(F)C(F)F)cc2)c1=O`, `COc1ccc(-n2ccnc2C(c2cc(F)ccc2F)S(=O)(=O)c2ccc(Cl)cc2)cc1` (stereo unspecified) is higher in melting point: 71 to 73 °C for the first, 150 to 151 °C for the second.

Compared with `NS(=O)(=O)c1ccc(Cl)cc1NC(=O)Nc1cccc(C(F)(F)F)c1`, `O=C(Nc1ccc(C(F)(F)F)cc1)Nc1cccc(S(=O)(=O)Nc2ccc(Cl)cc2)c1` is higher in melting point: 163 to 165 °C for the first, 196 to 198 °C for the second.

First: O=C1OCCC23C(=CC=CC12)C1=C(C=C3c2ccc3c(c2)OCO3)OCO1 (stereo unspecified)
Second: CC(C)N1C(=O)NC(c2ccc3c(c2)OCO3)c2cc3c(cc21)OCO3 (stereo unspecified)
The melting point of the first is higher: 263 to 266 °C for the first, 87 to 89 °C for the second.

Compared with `O=[N+]([O-])c1ccc2[nH]c(C(F)(F)F)cc2c1`, `Cc1nc2c(cnn2-c2c(Cl)cc(C(F)(F)F)cc2Cl)c(=O)[nH]1` is higher in melting point: 190 to 193 °C for the first, 300 °C for the second.

Compared with `CNC(=O)N(O)C(C)c1ccc(F)c(Br)c1` (stereo unspecified), `CCC(=O)N(O)C(C)c1ccco1` (stereo unspecified) is lower in melting point: 137 to 138 °C for the first, 74 to 76 °C for the second.

First: NC(=O)CCCN(Cc1ccccc1)Cc1ccccc1
Second: O=C(CCCc1ccccc1)NCc1ccc(C(=O)O)cc1
The melting point of the first is lower: 76 to 77 °C for the first, 178 to 179 °C for the second.

First: CCCCCCCCCCCCCCCCOCC(O)CN1CCC(c2ccccc2)CC1 (stereo unspecified)
Second: CCCCCCCCCCCCCCCCCCOc1cc(OCCCOc2ccccc2)cc(N(CC(=O)O)CC(=O)O)c1
The melting point of the first is lower: 64 to 65 °C for the first, 99 to 102 °C for the second.

First: Cc1ccccc1C(C#N)=C1C=CC(=NOP(=O)(c2ccccc2)c2ccccc2)S1
Second: c1ccc(-c2cc3c(ccc4ccccc43)o2)cc1
The melting point of the first is higher: 165 to 167 °C for the first, 140 to 144 °C for the second.

First: CC(Cc1ccc(-c2ccc(Cl)cc2)cc1Cl)NC(=O)c1cn(C)nc1C(F)F (stereo unspecified)
Second: COc1ccc(-n2nc(C(F)F)cc2-c2ccc(S(C)=O)cc2)cc1 (stereo unspecified)
The melting point of the first is lower: 96 to 98 °C for the first, 123 to 124 °C for the second.

First: CC(C)(O)C#Cc1ccccc1
Second: CC(C)(C)OC(=O)C(Nc1ccccc1)C(=O)OC(C)(C)C
The melting point of the first is lower: 52 to 53 °C for the first, 94 °C for the second.

First: COC(=O)c1cncc(O)c1
Second: COC(=O)c1ccc(Nc2cccc3ccccc23)cc1
The melting point of the first is higher: 186 to 187 °C for the first, 130 to 132 °C for the second.

First: OCCN1CCOC(c2ccccc2)(c2ccccc2)CC1
Second: CC1CCCN(C(=O)COc2cc(-c3ccccc3)nc3ccccc23)C1 (stereo unspecified)
The melting point of the first is higher: 122 to 123 °C for the first, 96 °C for the second.

Compared with `CCN(C(=O)N1CCN(c2cc(Cl)cc(Cl)c2)CC1)c1nc2ccccc2nc1OC`, `COc1cc2c(cc1Nc1ncc(Cl)c(Nc3ccccc3OC)n1)CCN(CC(=O)N(C)C)CC2` is lower in melting point: 146 to 148 °C for the first, 65 to 85 °C for the second.

First: C[C@H](NC(=O)c1c[nH]c2ncc(-c3ccc(C(=O)NCc4ccccc4)s3)nc12)C(C)(C)C
Second: Cc1nc(N2CCNC2=O)sc1C(=O)NCc1ccccc1
The melting point of the first is lower: 225 to 226 °C for the first, 226 to 228 °C for the second.

First: Nc1cnc2ccc(Cl)cc2n1
Second: Nc1cc(CO)ccc1Sc1nccnc1Cl
The melting point of the first is higher: 219 to 222 °C for the first, 148 to 150 °C for the second.

First: Cc1ccc(C(=O)Nc2nc(-c3ccccc3)c(-c3nc4ccccc4c(=O)n3-c3ccc(Cl)cc3)s2)cc1
Second: O=C(CCC(=O)[C@H](Cc1ccccc1)NC(=O)c1ccccc1)N[C@@H](Cc1c[nH]c2ccccc12)C(=O)O
The melting point of the first is higher: > 275 °C for the first, 171 to 173 °C for the second.

First: NC(=O)c1ccc(NC2CCN(Cc3ccccc3)C2)cc1 (stereo unspecified)
Second: Nc1ccc(C(=O)NNC(=O)CCCCN2CCC(Cc3ccccc3)CC2)cc1
The melting point of the first is lower: 160 to 162 °C for the first, 163 to 165 °C for the second.

First: COc1ccc2[nH]c3c(c2c1)CC(OC(=O)c1ccccc1)CC3 (stereo unspecified)
Second: COc1cccc(C(O)C2c3ccccc3Cc3ccccc32)c1 (stereo unspecified)
The melting point of the first is higher: 135 to 141 °C for the first, 106 °C for the second.

Compared with `O=S(=O)(NCCCCCCCCn1ccnc1)c1ccc(Cl)cc1`, `CC(=Cc1cccc([N+](=O)[O-])c1)C(=O)Oc1ccc(Cl)cc1` is higher in melting point: 54 to 56 °C for the first, 102 °C for the second.

First: COC(=O)C1CCc2sc3ccccc3c2C1=O (stereo unspecified)
Second: Oc1cccc2c1sc1ccccc12
The melting point of the first is lower: 158 to 160 °C for the first, 167 to 168 °C for the second.

First: CN(Cc1ccc2c(Br)c(OCC#N)ccc2c1)C(=O)c1cn(C)c2ccccc12
Second: Cc1oc(-c2ccccc2)nc1COc1ccc(Cn2cc(CCC(=O)O)c(C(C)C)n2)cc1
The melting point of the first is higher: 148 to 150 °C for the first, 97 to 98 °C for the second.

First: C=C(C)Cc1cc(C(=O)O)ccc1OCc1ccc(F)cc1
Second: CON=C(c1noc(C)n1)c1cc(Cl)ccc1OCc1ccc(Cl)cc1
The melting point of the first is higher: 164 to 165 °C for the first, 127 to 128 °C for the second.

Compared with `NCC1Cc2cc(C(F)(F)F)cc(-c3ccc(C(F)(F)F)cc3)c2O1` (stereo unspecified), `Cc1nnc(-c2ccc3ncn(-c4cc(C(F)(F)F)ccc4Cl)c3c2)o1` is lower in melting point: > 250 °C for the first, 211 to 212 °C for the second.

First: Cc1ccc([C@@H](O)C=CC(C)(C)C)cc1
Second: COCCNc1cc(Cl)nc(-c2ccc(C)cc2)n1
The melting point of the first is lower: 38 to 40 °C for the first, 141 to 144 °C for the second.

Going from `O=c1c2c(n(-c3ccccc3)c3c1CCc1cc(O)ccc1-3)NCCC2` to `C/C(=C\C(C)O)c1ccc(-c2ccccc2)c(Cl)c1` (stereo unspecified), the melting point falls from > 330 °C to 86 °C.

First: COC(=O)c1cn2c(=O)c(Cl)c(C)nc2s1
Second: COC(=O)C1=C(C)N=C(C)C(C(=O)OC)C(c2ccccc2)C1 (stereo unspecified)
The melting point of the first is higher: 218 to 220 °C for the first, 135 to 137 °C for the second.

First: CC(=NNc1ccc(C2=NNC(=O)CO2)cc1)c1ccncc1
Second: O=c1[nH]cc(Cc2ccncc2)c2ccccc12
The melting point of the first is higher: 195 °C for the first, 189 to 190 °C for the second.

First: O=C(O)c1ccc(OCCNC(=O)C2Cc3ccccc3N2S(=O)(=O)c2ccc(-c3cccc(C(F)(F)F)c3)cc2)cc1Cl (stereo unspecified)
Second: COc1cc(OC)c(-c2cc3ccccc3n2C(=O)OC(C)(C)C)cc1/C=C/C(=O)c1ccc(S(N)(=O)=O)cc1
The melting point of the first is lower: 104 to 108 °C for the first, 120 to 122 °C for the second.

First: O=[N+]([O-])c1cccnc1Nc1ccncc1
Second: Clc1cccc(Nc2ccccc2)c1
The melting point of the first is higher: 165 to 167 °C for the first, 128 to 138 °C for the second.

First: O=C1c2ccccc2C(=O)N1c1ncnc2[nH]ccc12
Second: O=Cc1c2ccccc2c(Br)c2ccccc12
The melting point of the first is higher: 276 to 277 °C for the first, 215 to 216 °C for the second.

First: CC(C)(C)OC(=O)N1[C@@H](Cc2cccc([Si](C)(C)C)c2)C(=O)O[C@H](c2ccccc2)[C@@H]1c1ccccc1
Second: Nc1cccc(-c2cccc(CC3CCCC3NCCc3ccccc3)c2)n1 (stereo unspecified)
The melting point of the first is lower: 88 to 90 °C for the first, 110 to 130 °C for the second.

First: N#Cc1ccc(OCCCCOc2cccc(-c3cc4ccc(C#N)cc4o3)c2)cc1
Second: Nc1ccc(Oc2ccccc2-c2ccccc2Oc2ccc(N)c(N)c2)cc1N
The melting point of the first is lower: 129 to 130 °C for the first, 172 to 174 °C for the second.

First: O=C1CCCN1Cc1ccc2ccn(C3CCN(CCc4ccc(F)cc4)CC3)c2c1
Second: Fc1ccc(Cn2c(NC3CCN(CCc4ccccn4)CC3)nc3ccccc32)cc1
The melting point of the first is lower: 106 to 108 °C for the first, 133 °C for the second.

Compared with `Cc1cc2oc(C(=O)O)cc(=O)c2c2c1-c1ccccc1C(C)(C)O2`, `CC(C)(C)c1cc(C(C)(C)C)c2c(c1)C1(O)C(=O)c3ccccc3C1(O)O2` (stereo unspecified) is lower in melting point: 231 to 232 °C for the first, 200 to 203 °C for the second.

Compared with `CC(O)CNC(=O)c1cc2ccccc2o1` (stereo unspecified), `COc1cccc(Cc2cc3ccccc3s2)c1` is lower in melting point: 90 to 91 °C for the first, 74 to 75.5 °C for the second.

First: Cc1ccc(C2(O)CCN(CCCN3c4cccc5cccc(c45)S3(=O)=O)CC2)cc1
Second: CN1CCN(C(=O)c2ccc(-c3cnc4c(c3)N(Cc3cc(F)ccc3F)CCN4)cc2)CC1
The melting point of the first is higher: 218 °C for the first, 180 °C for the second.

Compared with `CCC(Cc1c(I)cc(I)c(NC(=O)CCl)c1I)C(=O)O` (stereo unspecified), `CCC(=O)Nc1cccc2c1CCC(NC(=O)CC)C2` (stereo unspecified) is higher in melting point: 157 °C for the first, 270 °C for the second.

Compared with `O=C1C(=O)c2ccccc2C2=C1SCC(CN1CCC(O)CC1)O2` (stereo unspecified), `CCOC(=O)C1CCCN(C(=O)C2CCC(Nc3nccc(-n4ccc5c(OCCCS(C)(=O)=O)cccc54)n3)CC2)C1` (stereo unspecified) is higher in melting point: 98 to 100 °C for the first, 175 to 177 °C for the second.

First: COc1c(C)cnc(Cn2c(SC/C=C(\C)CCC=C(C)C)nc3ccccc32)c1C
Second: COc1cc2c(cc1O)C(OC)CN(Cc1ccccc1OC)C2 (stereo unspecified)
The melting point of the first is higher: 76 to 80 °C for the first, 45 to 47 °C for the second.

First: COCC1CCCN1S(=O)(=O)c1ccc2c(c1)C1(OCCCO1)C(=O)N2CCC#N (stereo unspecified)
Second: COc1ccc2c(Cc3ccc(OC4CCCC4N4CCCCC4)cc3)c(-c3ccc(OCCN4CCCC4)cc3)sc2c1 (stereo unspecified)
The melting point of the first is higher: 138 to 141 °C for the first, 61 to 64 °C for the second.

Compared with `CCOC(=O)c1ccc(CCCC2NC(=O)CS2)cc1` (stereo unspecified), `CCOC(=O)CCCc1ccc(N[C@@H](CCC(N)=O)C(=O)O)cc1` is higher in melting point: 99 to 100 °C for the first, 179 to 180 °C for the second.

First: CCOC(=O)C1=C(COCC#CC(=O)O)NC(C)=C(C(=O)OC)C1c1cccc(Cl)c1Cl (stereo unspecified)
Second: CCN(C)C(=O)NS(=O)(=O)c1ccccc1OC(Cl)=CCl
The melting point of the first is lower: 100 °C for the first, 179 to 180 °C for the second.

First: CC(N)=C(C(=O)OC(C)(C)C)C(=S)NC(=O)c1ccccc1
Second: CN(Cc1ccccc1)C(=N)N[N+](=O)[O-]
The melting point of the first is higher: 107 to 110 °C for the first, 103 to 107 °C for the second.

First: Nc1nc(N)nc(-c2ccc(NS(=O)(=O)c3ccc4ccccc4c3)cc2)n1
Second: O=C(c1ccc(Nc2ccnc3cc(C(F)(F)F)ccc23)cc1)N1CCN(c2ncccn2)CC1
The melting point of the first is lower: 230 to 233 °C for the first, 246 to 248 °C for the second.

First: C#CCc1[nH]c(C)c2c1CN=C(c1ccccc1F)c1cc(Cl)ccc1-2
Second: Cc1ccc(-c2nc(C#N)c(-c3cccc(Cl)c3)n2-c2cc(Cl)ccc2C)cc1C
The melting point of the first is lower: 179 to 180 °C for the first, 218 °C for the second.

First: CCCn1c(=O)nc(SC)c2c1ncn2C
Second: CSc1cn(C)c2cc(-c3cccc(Cl)c3)sc2c1=O
The melting point of the first is lower: 225 to 226 °C for the first, 234 to 236 °C for the second.

First: COc1ncnc(-c2cc([N+](=O)[O-])c(C#N)cc2F)c1C
Second: Cc1ccc([N+](=O)[O-])c(Cl)c1C#N
The melting point of the first is higher: 129 to 131 °C for the first, 106 to 107 °C for the second.

Compared with `CCC(=O)NC1C=CCCCC1` (stereo unspecified), `NC(=O)[C@@H]1C[C@H](S)CN1C(=O)OCc1ccc([N+](=O)[O-])cc1` is higher in melting point: 84 °C for the first, 158 to 162 °C for the second.

First: CC(C)(C)c1ccc2c(Br)c3ccc(C(C)(C)C)cc3c(Br)c2c1
Second: S=C1Nc2cc(Br)ccc2-n2ccc3cccc1c32
The melting point of the first is lower: 150 to 152 °C for the first, 214 to 215 °C for the second.

First: CCN(c1ccc(C)c2cc(-c3ncc(CO)s3)[nH]c12)S(=O)(=O)c1cccs1
Second: COC(=O)NNc1cc(C)c(-c2cccc([N+](=O)[O-])c2)nn1
The melting point of the first is lower: 166 to 167 °C for the first, 198 to 199 °C for the second.

Compound `CCC(=O)c1cn(-c2c(Cl)cc(C(F)(F)F)cc2Cl)nc1C#N` has a melting point of 143 °C.
